Laboratory results published in PubChem BioAssay (NCI).
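Exposure lasted 48 hours, with cells grown in 96-well plates and compounds tested at five concentrations. GI50: concentration for 50% inhibition of growth. TGI marks complete inhibition of growth.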

Key:
Experiment in all cases: growth of human tumour cells (NCI), 48 h
ACHN renal = tested on: ACHN renal
CAKI-1 renal = tested on: CAKI-1 renal
K-562 leukemia = tested on: K-562 leukemia
NCI-H226 lung = tested on: NCI-H226 lung
NCI-H522 lung = tested on: NCI-H522 lung
RXF 393 renal = tested on: RXF 393 renal
SF-539 CNS = tested on: SF-539 CNS
SW-620 colon = tested on: SW-620 colon
U251 CNS = tested on: U251 CNS
UACC-257 melanoma = tested on: UACC-257 melanoma

Compound | GI50 (ACHN renal) | TGI (ACHN renal) | GI50 (CAKI-1 renal) | TGI (CAKI-1 renal) | GI50 (K-562 leukemia) | TGI (K-562 leukemia) | GI50 (NCI-H226 lung) | TGI (NCI-H226 lung) | GI50 (NCI-H522 lung) | TGI (NCI-H522 lung) | GI50 (RXF 393 renal) | TGI (RXF 393 renal) | GI50 (SF-539 CNS) | TGI (SF-539 CNS) | GI50 (SW-620 colon) | TGI (SW-620 colon) | GI50 (U251 CNS) | TGI (U251 CNS) | GI50 (UACC-257 melanoma) | TGI (UACC-257 melanoma)
C[CH2][Sn]([CH2]C)([O]C(=O)c1cccc(F)c1)[O][Sn]([CH2]C)([CH2]C)[O]C(=O)c1cccc(F)c1 | 18.7 µM | 32.7 µM | 11.7 µM | 24.1 µM | 18 µM | 93.4 µM | 18.8 µM | 33.8 µM | 1.32 µM | 2.65 µM | 14.5 µM | 27.7 µM | 17 µM | 30.9 µM | 17.2 µM | 30.9 µM | 16.9 µM | 30.6 µM | 16.8 µM | 30.9 µM
COc1cc(/C=C2/C(=O)NC(Cc3cc(OC)c(OC)c(C)c3OC)C(=O)N2Cc2ccccc2)c(OC)c(C)c1OC (stereo not given) | – | > 100 µM | – | > 100 µM | – | > 100 µM | – | > 100 µM | – | 60.2 µM | – | > 100 µM | – | > 100 µM | – | > 100 µM | – | > 100 µM | – | > 100 µM
CC(C)(c1ccc(OC#N)cc1)c1ccc(OC#N)cc1 | – | > 100 µM | – | > 100 µM | – | > 100 µM | – | > 100 µM | – | > 31.6 µM | – | > 100 µM | – | > 100 µM | – | > 100 µM | – | > 100 µM | – | > 100 µM
C=C1CC[C@@H]2[C@](C)(COC(C)=O)[C@H](OC(C)=O)CC[C@@]2(C)[C@@H]1C/C=C1/C(=O)OC[C@H]1OC(C)=O | 1.71 µM | 3.22 µM | 6.67 µM | 19.6 µM | 2.63 µM | 32.1 µM | 2.14 µM | 5.42 µM | 1.52 µM | 3.63 µM | 1.95 µM | 4.13 µM | 1.7 µM | 3.22 µM | 2.29 µM | 5.85 µM | 6.09 µM | 19.3 µM | 6.2 µM | 19.9 µM
CN(C)CCNC(=O)c1cc2c3ccccc3[nH]c2c2ncccc12 | 4.24 µM | 28 µM | 0.515 µM | 12.3 µM | 9.05 µM | 26.2 µM | 9.8 µM | 39.6 µM | 7.08 µM | 24.5 µM | 6.08 µM | 20.1 µM | 8.87 µM | 21.1 µM | 4.24 µM | 24.9 µM | 12.2 µM | 37 µM | 10.4 µM | 88.1 µM
C=CCCCCCC(O)C(O)C/C=C\C/C=C\CC (stereo not given) | – | > 18.8 µM | – | > 18.8 µM | – | > 18.8 µM | – | > 18.8 µM | – | > 18.8 µM | – | > 18.8 µM | – | > 18.8 µM | – | > 18.8 µM | – | > 18.8 µM | – | > 18.8 µM
N#CC1=C(N)Oc2c(sc3c(F)cccc23)C1c1ccc(F)cc1 (stereo not given) | 0.752 µM | 16.1 µM | 0.508 µM | 15.9 µM | 0.354 µM | 18.4 µM | 1.71 µM | 15.8 µM | 0.473 µM | 10.8 µM | 1.07 µM | 6.31 µM | 0.447 µM | 2.67 µM | 0.531 µM | 16.3 µM | 0.569 µM | 15.3 µM | 16.6 µM | 39.5 µM
O=C(/C=C/c1ccc(C(F)(F)F)cc1)c1ccc(Nc2nc(NCCO)nc(N3CCOCC3)n2)cc1 | 1.86 µM | 3.86 µM | 2.54 µM | 15.6 µM | 2.33 µM | > 100 µM | 2.32 µM | 5.89 µM | 1.85 µM | 5.04 µM | 1.63 µM | 3.26 µM | 1.64 µM | 3.06 µM | 1.92 µM | 4.05 µM | 1.63 µM | 3.38 µM | 3.98 µM | 17.8 µM
C/C=C/C=C\C1OC(O)([C@H](CC)C(=O)NC/C=C/C=C(\C)[C@H](OC)C(C)C2OC(\C=C/C=C/C=C(\C)C(=O)c3c(O)ccn(C)c3=O)[C@H](O)[C@@H]2O)C(O)C(O)C1(C)C (stereo not given in full) | – | > 100 µM | – | > 100 µM | – | > 100 µM | – | > 100 µM | – | > 100 µM | – | > 100 µM | – | > 100 µM | – | > 100 µM | – | > 100 µM | – | > 100 µM
COC(=O)c1cc2oc(/C=C3\SC(=S)N(NC(C)=O)C3=O)cc2n1Cc1ccccc1 | 3.68 µM | 10.5 µM | 2.42 µM | 7.79 µM | 1.08 µM | > 50 µM | 9.72 µM | 22.4 µM | > 50 µM | > 50 µM | 2.81 µM | 16.8 µM | 2.79 µM | 14 µM | 8.35 µM | 39 µM | 1.37 µM | 4.49 µM | 5.69 µM | 16.4 µM
COC(=O)C(CC(=O)Nc1ccc(Cl)c(Cl)c1)C(=O)C(=O)NC1C2CC3CC(C2)CC1C3 (stereo not given) | – | > 100 µM | – | > 100 µM | – | > 100 µM | – | > 100 µM | – | > 100 µM | – | > 100 µM | – | > 100 µM | – | > 100 µM | – | > 100 µM | – | > 100 µM
COc1ccc(/C=C/C(=O)c2cc3c(N)c(C(=O)Nc4ccccc4)sc3nc2C)cc1 | 0.344 µM | > 23 µM | 0.258 µM | > 50 µM | 0.14 µM | > 50 µM | 0.55 µM | 7.28 µM | 0.113 µM | 4.56 µM | 0.114 µM | 2.31 µM | 0.105 µM | 0.286 µM | 0.216 µM | 11.7 µM | 0.325 µM | 8.24 µM | 18 µM | > 50 µM
COc1ccccc1/C=N/N=C(\N)NO | – | > 100 µM | – | > 100 µM | – | > 100 µM | – | 90.7 µM | – | 66.9 µM | – | > 100 µM | – | 9.4 µM | – | > 100 µM | – | > 100 µM | – | > 100 µM
Clc1ccc(SCCCCCCCCCCSc2ccc(Cl)cc2)cc1 | – | > 73.5 µM | – | > 100 µM | – | > 100 µM | – | > 100 µM | – | > 100 µM | – | > 100 µM | – | > 100 µM | – | 70.9 µM | – | > 69.8 µM | – | > 76.1 µM
